How the values were obtained:
L57 cells = test: Insect cell-based marker ligand assay (EcR gene switch, β-galactosidase reporter), L57 cells; conditions: Drosophila melanogaster, 48 h, read-out: L57 Cells (Fold Induction)
BRL-AG2 cells = test: Insect cell-based marker ligand assay (EcR gene switch, β-galactosidase reporter), BRL-AG2 cells; conditions: 48 h
[1] = read-out: BRL-AG2 (Fold Induction)
[2] = read-out: BRL-AG2 Cells (Fold Induction)

Q: For `COc1cccc(C(=O)NN(C(=O)c2cc(C)cc(C)c2)C(C)(C)C)c1C` [Marker, N′-tert-butyl-N′-(3 ,5-dimethylbenzoyl)-3-methoxy-2-methylbenzohydrazide], which fold induction at 0.07 µg/mL (L57 cells) is on record?
A: The fold induction at 0.07 µg/mL was 27.

Q: What about the fold induction at 0.12 µg/mL (L57 cells) of the same compound?
A: Its fold induction at 0.12 µg/mL is 1.

Q: And the fold induction at 0.69 µg/mL (L57 cells)?
A: The fold induction at 0.69 µg/mL was 46.

Q: What about the fold induction at 1.2 µg/mL (L57 cells) of the same compound?
A: Its fold induction at 1.2 µg/mL is 23.

Q: And the fold induction at 6.95 µg/mL (L57 cells)?
A: Its fold induction at 6.95 µg/mL is 63.

Q: And the fold induction at 12 µg/mL (L57 cells)?
A: The fold induction at 12 µg/mL was 30.

Q: What about the fold induction at 0.12 µg/mL (BRL-AG2 cells; [1]) of the same compound?
A: Its fold induction at 0.12 µg/mL is 16.

Q: And the fold induction at 1.2 µg/mL (BRL-AG2 cells; [1])?
A: The fold induction at 1.2 µg/mL was 21.

Q: What about the fold induction at 12 µg/mL (BRL-AG2 cells; [1]) of the same compound?
A: Its fold induction at 12 µg/mL is 31.

Q: And the fold induction at 0.07 µg/mL (BRL-AG2 cells; [2])?
A: The fold induction at 0.07 µg/mL was 151.

Q: What about the fold induction at 0.69 µg/mL (BRL-AG2 cells; [2]) of the same compound?
A: The fold induction at 0.69 µg/mL was 182.

Q: And the fold induction at 6.95 µg/mL (BRL-AG2 cells; [2])?
A: Its fold induction at 6.95 µg/mL is 202.

From US6576422B1, “Method for identifying products employing gene expression” (Rohm and Haas Company, priority 2000, dated 2003)
